Reference: article doi:10.1101/2025.04.25.650653, “Hierarchical small molecule inhibition of MYST acetyltransferases” (bioRxiv, 2025)
Values joined by “and” are separate entries in the source; they are usually repeats but may differ in a detail not shown here. Equal values may be shown once.

What was measured:
[1] = test system: H3K18Ac (KAT3A/B); assay: Histone biomarker bottom-up LC-MS/MS, MCF-7; assay type: cell-based; details: for Ratio, H3_18_26 K18ac: Replicates 1-3
[2] = test system: MYST KAT complexes (KAT7, KAT8, KAT5) in HeLa nuclear extracts; assay: Competitive chemoproteomic profiling (H3K14-CoA affinity capture) of native MYST complexes; assay type: binding
Description: Proteins belonging to multiple KAT complexes are characterized by distinct competition profiles.
The beads were washed three times
during the bead coating step.
hours with end-over-end mixing.
After magnetic separation for 3 minutes,
conditions, and both eluates were combined.
Membranes were probed with antibodies

[3] = test system: BT-549 cells; assay: ATP-based viability assay (CellTiter-Glo); assay type: cell-based; details: Homo sapiens; BT-549, ATP-Glo assay, 72 h, n=4
Source text: Figure 6. […] (C) Dependence of breast cancer cell lines on non-MYST KATs (EP300, CREBBP), MYST KATs (KAT6A, KAT6B, KAT7, KAT8, KAT5), and a MYST KAT complex member (BRPF1) derived from on DepMap CRISPR screening data. BT-549 is highlighted in orange. Lower CERES score indicates a greater dependence of the cell line on the specified gene. […] Data is representiative of n=2 biological replicates.
Analysis of DepMap-derived CRISPR screening data supports the notion that while breast cancer models vary widely in their requirement for EP300 and CREBBP, BT-549 appears to a fairly independent line. […]
(0.01, 0.1, 1, 10, 100 μM) for 48 hours and analyzed by sulforhodamine B assay for growth inhibition as previously described.12-14 o validate the NCI-60 relative activity trends using an orthogonal method, we […]
0.94, 0.47, 0.23, 0 μM) for 96 hours. Experiments were performed in quadruplicate, and cell viability was measured using CellTiter-Glo® Luminescent Cell Viability Assay (Promega, G7572) according to the manufacturer's instructions. Luminescence signals were recorded on a BioTek Synergy 2 plate reader, and results were normalized to vehicle-treated controls (set to 100%). Half-maximal inhibition values (IC₅₀) were determined from nonlinear regression analysis of dose-response curves using GraphPad Prism 9. […]

[4] = test system: H4K16Ac (KAT8); assay: Histone acetylation biomarker western blot, MCF-7; assay type: cell-based; details: MCF-7 cells, 24 h, up to 30 μM
Description: Target engagement was assessed using the panel of MYST-dependent histone acetylation biomarkers defined above. […] While WM-3835 has been applied to study KAT7, its initial publication alludes to its ability to inhibit both KAT6A/B and KAT7.[14], [43] […] All commercial vendors currently market WM-3835 as a KAT7 inhibitor.
General materials and methods
Total protein on western blots was […]
manufacturer's protocols.
KAT capture and competitive chemoproteomic profiling […]
for 2 hours, then lyophilized.
12 μL triethylamine. […] The beads were then magnetically separated […]
distinguish between tightly grouped and diffuse clusters, compactness was quantified by calculating the average pairwise Euclidean distance between all points within each cluster. Clusters with lower average

## COc1cccc(OC)c1S(=O)(=O)Nc1noc2cc(Cn3cccn3)cc(OC)c12 [PF-9363]
[1]; KAT marker KAT3A/B, PF-9363 0.1 v 30
  Fold-change 0.1 v 30, H3_18_26 K18ac: 1.39
[1]; KAT marker KAT3A/B, PF-9363 (0.1 mM)
  Average ratio, H3_18_26 K18ac: 0.0171
[1]; KAT marker KAT3A/B, PF-9363 (30 mM)
  Average ratio, H3_18_26 K18ac: 0.0123
[1]; KAT marker KAT3A/B, dose 0.1
  Ratio, H3_18_26 K18ac: 0.01666 and 0.01829 and 0.01641
[1]; KAT marker KAT3A/B, dose 1
  Ratio, H3_18_26 K18ac: 0.01874 and 0.01672 and 0.01619
[1]; KAT marker KAT3A/B, dose 10
  Ratio, H3_18_26 K18ac: 0.01831 and 0 and 0.01771
[1]; KAT marker KAT3A/B, dose 30
  Ratio, H3_18_26 K18ac: 0 and 0.0193 and 0.01765
[1]; MCF-7 cells, 24 h, any concentration (0.1-30 μM)
  modulation of H3K18Ac: not found to modulate
[2]; 1 and 10 μM, HeLa nuclear extracts
  competition of capture of KAT8-containing MSL and NSL complexes and KAT5-containing NuA4 complex: competed capture of all CORUM-annotated members
[2]; HeLa nuclear extracts, chemoproteomic competition
  sensitivity of KAT complexes, general order: KAT7 > KAT8 > KAT5
[2]; chemoproteomic profiling and histone acetylation biomarkers
  hierarchical inhibition order of native KAT complexes: KAT6A/B > KAT7 >> KAT8 > KAT5
[3]
  GI50: ~7 µM
[4]
  inhibition of KAT8 (H4K16Ac): able to inhibit KAT8-catalyzed H4K16Ac
